Key:
human SIRT3 = target: T1, human SIRT3 (Homo sapiens, UniProt Q9NTG7); experiment: Surface plasmon resonance binding assay, immobilized SIRT3; details: SPR, Scatchard analysis, analytes 5-80 μM
T1 construct: pET151D/Topo (Sirt3-114-380 and Sirt5-34-302); His tag (N, cleaved yes); made in house; host or cells: Escherichia coli
T1 sequence (Q9NTG7 114-380): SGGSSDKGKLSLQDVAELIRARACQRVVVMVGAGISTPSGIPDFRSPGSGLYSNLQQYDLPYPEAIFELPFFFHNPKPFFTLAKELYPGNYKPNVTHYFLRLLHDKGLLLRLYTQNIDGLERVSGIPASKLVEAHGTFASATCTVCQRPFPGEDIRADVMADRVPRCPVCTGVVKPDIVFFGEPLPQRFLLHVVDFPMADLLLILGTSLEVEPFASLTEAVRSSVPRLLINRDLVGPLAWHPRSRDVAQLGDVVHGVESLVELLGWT
Description: Next, surface plasmon resonance (SPR) experiments were conducted with selected SIRT3 activators 2e and 3a–d to ascertain their biophysical interaction with the human SIRT3 protein. Their parental compounds 2 and 3, together with honokiol, were used as positive controls. The experiments were carried out twice at different concentrations (5, 10, 20, 40, and 80 μM), by injecting the compounds at increasing doses (Figure 5). The resonance units (RU) increase with respect to baseline indicates the formation of the SIRT3/ligand complex, the plateau region represents the steady-state phase of the interaction (RUeq, RU at equilibrium) and the decrease in RU after 180 s represents dissociation of analytes from the immobilized SIRT3 protein after injection of the buffer.
SPR experiments were carried out using a SensiQ Pioneer system (SensiQ, Oklahoma City, OK, USA), essentially as in Genovese et al. 2020[84] and in Battista et al. 2021,[85] with some modifications, as follows.
The sensor chip (COOH5) was chemically activated by a 35 μL injection of a 1:1 mixture of […] (200 mM) and N-hydroxysuccinimide (50 mM) at a flow rate of 5 μL/min. Sirtuin3 (ligand) was immobilized on activated sensor chips via amine coupling. Immobilization was carried out in 20 mM sodium acetate at pH 4.0; unreacted groups were blocked by injecting 1 M ethanolamine hydrochloride (35 μL). Sirtuin3 immobilization level obtained was 1500–4000 RU.
The analytes, dissolved in 100% DMSO at 10 mM concentration, were diluted in buffer 20 mM Hepes, 150 mM NaCl, 0.005% surfactant P20 buffer (HBSP) to a concentration of 200 μM (2% final DMSO concentration), further diluted in HBSP + 2% DMSO (HBSP2%D) and injected on the sensor chip at a constant flow rate (nominal flow rate = 30 μL/min) at the following concentrations: 5, 10, 20, 40, and 80 μM.
The RU increase relative to baseline indicates complex formation (taking place at known analytes concentrations at each moment in the gradient); the plateau region represents the steady-state phase of the interaction (RUeq); and the decrease in RU after 180 s represents dissociation of analytes from the immobilized Sirtiun3 after injection of HBSP2%D. Regeneration procedures are based on two long (2000 and 500 s) injections of buffer, separated by a brief (5 s) injection of 10 mM NaOH.
Control experiments were performed in sensor chips treated as described above in the absence of an immobilized ligand. Kinetic evaluation of the sensorgrams was obtained using the SensiQ Qdat program and full fitting with 1, 2, and 3 sites; Scatchard analysis was used to determine apparent KD values.

CAL-62 cells = experiment: Clonogenic assay, CAL-62; format: cell-based; details: Homo sapiens; CAL-62, 48 h, normoxia; read-out: IC50 against colonies formation
Description: (§1) Afterward, the selected compounds 3a–d were assayed at 50 μM for 24 and 48 h in CAL-62 and MDA-MB-231 cells to assess their ability to impair the cell viability and colony formation in either normoxia or hypoxia-induced condition, the latter obtained by adding a 200 μM cobalt chloride solution, as described in previous reports[69] (Figure 8). Most cancer cells, mainly solid types, are known to have an altered metabolism due to hypoxia, a non-physiological level of oxygen tension, which contributes to therapy resistance by causing cellular quiescence.[70] Moreover, hypoxic cancer cells can induce several factors that lead to cell proliferation and colony formation.[71]
(§2) Cells were seeded in a 100 mm dish and, once at 80–90% confluence, treated as described in the Results and Discussion section. After 24 and 48 h, cells were collected, counted, and 500 cells plated in a 100 mm dish. After about 7 days for CAL62 and 10 days for MDA-MB-231, plates were washed with phosphate-buffered saline solution (PBS); (Merck; 79382), and clones were fixed with 4% formaldehyde solution in PBS (Merck; F8775) at room temperature for 15 min. After that, the dishes were washed with PBS, and clones stained for 5 min with 0.5% crystal violet (Merck; C0775). Finally, the plates were washed with distilled water and air-dried. After scanning each individual dish, the colonies were counted the following day.

MDA-MB-231 cells = experiment: Clonogenic assay, MDA-MB-231; format: cell-based, human; details: for reduction of clonogenicity: MDA-MB-231, 50 μM, 48 h
Description: as §1, §2

[1] = Cell viability / cell death in healthy HaCaT cells; format: cell-based, human; details: human, HaCaT cells (healthy keratinocytes), HaCaT
Description: Breast cancer cell line MDA-MB-231, anaplastic thyroid cancer cell line CAL-62 and human keratinocytes HaCaT were purchased from ATCC and were cultured in RPMI 1640 medium (R0883 Sigma Aldrich-MERCK) (MDA-MB-231 and CAL-62) or DMEM medium (11965092, Gibco) supplemented with 10% fetal bovine serum (Sigma-Aldrich-MERCK, F9665), 2 mM glutamine (G7513; Sigma-Aldrich-MERCK), 100 units/mL penicillin and 0.1 mg/mL streptomycin (P0781; Sigma-Aldrich-MERCK). Adherent cells were detached by Trypsin–EDTA solution (TA049; Sigma-Aldrich-MERCK). Cells were maintained at 37 °C in humidified incubator with 5% CO2. Cells were treated with […] (CoCl2) (Merck; C8661) dissolved in distilled, sterile water for 24 h to induce hypoxia (200 μM). […] SIRT3 inhibitor 3-TYP was dissolved in DMSO and added to a final concentration of 1 μM for 24 and/or 48 h.
Cell viability was assessed by the trypan blue exclusion assay. At the end of treatments, cells were harvested and stained with 0,4% trypan blue (Merck; T8154). The cell suspension was applied to a hemocytometer and counted with phase contrast microscopy (NIKON EclipseTE2000U, Nikon Netherlands, Amsterdam, The Netherlands).

Question: With `CCOC(=O)C1=CN(C(=O)c2ccc(OC)c(OC)c2)C=C(C(=O)OCC)C1c1ccccc1` [Compound 3c, Diethyl 1-(3,4-dimethoxybenzoyl)-4-phenyl-1,4-dihydropyridine-3,5-dicarboxylate] as the compound, how does the Kd (human SIRT3) read?
Answer: 29000 nM

Question: Which IC50 (CAL-62 cells) does the source give for `CCOC(=O)C1=CN(C(=O)c2cc(OC)cc(OC)c2)C=C(C(=O)OCC)C1c1ccccc1` [Compound 3d, Diethyl 1-(3,5-dimethoxybenzoyl)-4-phenyl-1,4-dihydropyridine-3,5-dicarboxylate] here?
Answer: ~2500 nM

Question: What about the IC50 (MDA-MB-231 cells; Homo sapiens, MDA-MB-231, 48 h, normoxia, read-out: IC50 against colonies formation) of the same compound?
Answer: ~2200 nM

Question: And the reduction of clonogenicity (MDA-MB-231 cells; hypoxia)?
Answer: 95%

Question: What about the reduction of clonogenicity (MDA-MB-231 cells; normoxia) of the same compound?
Answer: 86%

Question: What about the viability at 24 h, 5 µM ([1]; 5 μM, 24 h, read-out: Cell viability (%) T24) of the same compound?
Answer: 96.1%

Question: What about the viability at 48 h, 5 µM ([1]; 5 μM, 48 h, read-out: Cell viability (%) T48) of the same compound?
Answer: 83.9%

Question: What about the viability at 24 h, 10 µM ([1]; 10 μM, 24 h, read-out: Cell viability (%) T24) of the same compound?
Answer: 91.6%

Question: What about the viability at 48 h, 10 µM ([1]; 10 μM, 48 h, read-out: Cell viability (%) T48) of the same compound?
Answer: 66.1%

Question: And the viability at 24 h, 25 µM ([1]; 25 μM, 24 h, read-out: Cell viability (%) T24)?
Answer: 84.7%

Question: What about the viability at 48 h, 25 µM ([1]; 25 μM, 48 h, read-out: Cell viability (%) T48) of the same compound?
Answer: 52.7%
